Consider one compound from US11633370B2, “Use of scavengers of reactive gamma-ketoaldehydes to extend cell lifespan and healthspan” (Vanderbilt University, priority 2016, dated 2023).

One series has as its system VC199 [sir-2.1(ok434)]. The series can be described thus: Pharyngeal pumping rate, VC199. In kind it is in vivo, C. elegans. The conditions noted are these: increasing concentrations of SA, day 15; P=0.5. As to the method: As with the N2 strain, the present inventors treated VC199 nematodes with increasing concentrations of SA and assessed the age-dependent accumulation of autofluorescent lipofuscin granules and decrease in pharyngeal pumping rate.
C. elegans pharyngeal pumping rate assays were performed on 60-mm agar plates with bacterial lawns at room temperature. Every fifth day, worms were transferred to fresh bacteria-seeded NGM plates, and incubated at 25° C. for 10 min in order to equilibrate feeding rates before measurement. After 10 min incubation, worms were observed under the Zeiss TLB 3.1 microscope with focus on the pharynx. The number of contractions in the terminal bulb of the pharynx was counted for 20 s and then plotted.

The subject of series [1] is VC199 (SIR-2.1 deficient strain). Kind of series: F3-IsoP quantification by GC/MS, VC199. In kind it is in vivo, C. elegans. The following applies: any dose of SA tested, Day 15. The text has this: One of the major stimuli for activation of sirtuins is oxidative stress. […] Indeed, the mitochondrial antioxidant manganese superoxide dismutase (MnSOD) has been identified as one of the major protein targets that is deacetylated by sirtuin isoforms, with deacetylation enhancing the enzymatic activity of MnSOD [60]. If SA indeed preserves SIR-2.1 enzymatic function in vivo, the present inventors hypothesized that SA treatment would dose-dependently decrease biomarkers of oxidant injury in a SIR-2.1-dependent manner. To quantify oxidant injury, the present inventors measured F3-isoprostanes (F3-IsoPs). […] To further characterize SA's ability to preserve SIR-2.1 function, the present inventors assessed acetylation of MnSOD at Lys 122.
F3-Isoprostanes were quantified from SA-treated worms a gas-chromatography-negative ion chemical ionization-mass spectrometry (GC-NICI-MS) approach. […]
Samples were spiked with 248 pg of deuterated internal standards, [^2H4]-15-F2t-IsoP, quantified and calibrated by the method of Milne et al. and acidified to pH<3 with HCl in preparation for further Separation Phase Extraction (SPE). […]
Eluates were dried under nitrogen and F3—IsoPs and resuspended in MeOH for separation by Thin Layer Chromatography (TLC). […] Deuterated F2-IsoP standard was measured at m/z 573. F3—IsoP was measured at m/z 567. […]

For a further series, the system named is N2 WT C. elegans. Kind of series: mtDNA copy number by qPCR, N2. In kind it is in vivo. The conditions noted are these: with age or with SA treatment. The source says:
Mitochondria lie at the center of aging biology, playing crucial roles in energy production, carbon substrate metabolism, apoptosis regulation, and redox balance and signaling. Since sirtuins play a major role in regulating mitochondrial function, the present inventors next wanted to investigate whether SA was exerting any of its effects via protection of mitochondrial processes. To investigate SA's effects on mitochondrial respiration, the present inventors administered SA to WT N2 (FIG. 5A) and non-functional SIR-2.1 mutant worms (FIG. 5B) and measured oxygen consumption rate (OCR) in whole worms over several days. […] The present inventors also examined the effect of SA treatment on mitochondrial DNA (mtDNA) integrity.
Relative mitochondrial and nuclear copy number were measured by quantitative, real-time PCR [90]. Primers for NADH dehydrogenase unit 1 (nd1) and a 164 bp region of the cox-4 gene were used in determination of mtDNA copy number. The nd1 forward primer 5′-[…]-3′ and reverse primer 5′-[…]-3′. Cox-4 forward primer 5′-GCCGACTGGAAGAACTTGTC-3′ and reverse primer 5′-[…]-3′. […] Amplified products were detected with SYBR Green (iQ™ SYBR® Green Supermix, Bio-Rad) and fluorescent signal intensities were determined by CFX96 Touch™ Real-Time PCR Detection System (Bio-Rad) by software CFX Manager™ (version 3.1). […]

For series [2] the following is noted: in vivo; cited from earlier work.
The conditions of series [3]: compared with pyridoxamine (PM); cited from earlier work.

Regarding `NCc1ccccc1O` [SA, salicylamine], the pharyngeal pumping rate result in the series with VC199 [sir-2.1(ok434)] is on record as “failed to preserve pharyngeal pumping rate”. The F3-IsoP levels entry in series [1] is reported as “did not significantly decrease”. The “mtDNA copy number relative to nuclear DNA” value in the series with N2 WT C. elegans was “no significant difference”. Also, the oral bioavailability result in series [2] was “orally bioavailable”. Besides, in series [3], the lipophilicity entry is on record as “more lipophilic”.
